The results in this text go back to BindingDB's records for doi:10.7270/Q2Q52N1X (Vanderbilt Screening Center for GPCRs, Ion Channels and …, 2009).

In general, EC50 refers to the concentration that produces a half-maximal response. A low value points to an effect from little substance.

The target of this test is T1, Solute carrier family 12 member 5 (Homo sapiens, UniProt Q9H2X9).
T1 sequence (Q9H2X9 whole entry): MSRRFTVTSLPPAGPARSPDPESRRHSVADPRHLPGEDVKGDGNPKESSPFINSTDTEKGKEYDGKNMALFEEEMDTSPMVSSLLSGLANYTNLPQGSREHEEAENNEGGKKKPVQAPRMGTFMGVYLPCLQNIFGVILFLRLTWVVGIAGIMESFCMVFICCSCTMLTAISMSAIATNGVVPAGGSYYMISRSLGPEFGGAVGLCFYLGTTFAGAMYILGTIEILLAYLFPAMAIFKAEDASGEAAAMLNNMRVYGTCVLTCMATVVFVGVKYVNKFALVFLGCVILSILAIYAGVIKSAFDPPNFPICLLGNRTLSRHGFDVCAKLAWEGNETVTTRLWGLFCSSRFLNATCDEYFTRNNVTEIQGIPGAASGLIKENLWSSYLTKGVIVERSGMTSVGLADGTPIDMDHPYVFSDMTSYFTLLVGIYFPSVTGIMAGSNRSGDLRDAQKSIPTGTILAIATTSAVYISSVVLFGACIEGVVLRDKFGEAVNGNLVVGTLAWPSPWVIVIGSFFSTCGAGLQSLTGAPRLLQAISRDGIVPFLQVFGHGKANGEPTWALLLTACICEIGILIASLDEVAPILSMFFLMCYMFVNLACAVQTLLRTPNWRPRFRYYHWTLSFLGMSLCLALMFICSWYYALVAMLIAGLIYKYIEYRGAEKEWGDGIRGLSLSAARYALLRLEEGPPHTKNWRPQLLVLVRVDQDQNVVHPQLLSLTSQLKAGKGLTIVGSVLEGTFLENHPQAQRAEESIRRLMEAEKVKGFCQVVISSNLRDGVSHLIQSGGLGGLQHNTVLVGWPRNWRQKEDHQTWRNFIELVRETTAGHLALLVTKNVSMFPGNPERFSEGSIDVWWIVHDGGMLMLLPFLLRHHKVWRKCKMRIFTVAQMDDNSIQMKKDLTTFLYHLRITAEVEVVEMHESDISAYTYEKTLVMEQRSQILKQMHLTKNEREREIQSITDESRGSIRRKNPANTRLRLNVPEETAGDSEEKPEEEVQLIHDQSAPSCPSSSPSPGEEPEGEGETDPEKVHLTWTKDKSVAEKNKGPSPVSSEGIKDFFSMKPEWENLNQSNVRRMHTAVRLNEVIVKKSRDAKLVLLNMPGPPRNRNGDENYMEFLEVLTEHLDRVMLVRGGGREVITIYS
Description: KCC2 modulator potency by thallium flux, dose response, cell-based, HEK293 KCC2, FluoZin-2 fluorescence (AID 1736).

Where [1] appears, read: inactive by the depositor's call.

The compound `O=C(NC(=S)Nc1nc(-c2cccc([N+](=O)[O-])c2)cs1)c1cc(Cl)ccc1Cl` [2,5-bis(chloranyl)-N-[[4-(3-nitrophenyl)-1,3-thiazol-2-yl]carbamothioyl]benzamide] displayed a concentration giving a half-maximal response (EC50) of 34.7 µM.
`Cc1ccc(C)c(C(=O)NC(C)CCc2ccccc2)c1` (configuration not stated) [2,5-dimethyl-N-(1-methyl-3-phenyl-propyl)benzamide]: the response was half-maximal at 3.82 µM (EC50).
The same measure, in the same setting: the result for `CCn1nnnc1SCC(=O)Nc1nc(-c2cccs2)cs1` [2-(1-Ethyl-1H-tetrazol-5-ylsulfanyl)-N-(4-thiophen-2-yl-thiazol-2-yl)-acetamide] reads 1.97 µM.
Still for that read-out and setting: the result for `Cn1c(CSc2nc3ccccc3s2)nc2ccccc21` [2-(1-Methyl-1H-benzoimidazol-2-ylmethylsulfanyl)-benzothiazole] reads 12.4 µM.
On the same count and under the same terms, the result for `C=CCNc1oc(Cc2cccc3ccccc23)nc1C#N` [2-(1-naphthalenylmethyl)-5-(prop-2-enylamino)-4-oxazolecarbonitrile] reads 12.1 µM; that for `O=C(CN1C(=O)NC2(CCCC2)C1=O)Nc1nc(-c2ccc(F)cc2)cs1` [2-(2,4-diketo-1,3-diazaspiro[4.4]nonan-3-yl)-N-[4-(4-fluorophenyl)thiazol-2-yl]acetamide], 0.231 µM; that for `N#Cc1nc(-c2ccco2)oc1N1CCN(Cc2ccccc2)CC1` [2-(2-furanyl)-5-[4-(phenylmethyl)-1-piperazinyl]-4-oxazolecarbonitrile], 4.59 µM.
Take `CCc1ccc(C(=O)COC(=O)c2cc([N+](=O)[O-])ccc2NCCO)cc1` [2-(2-hydroxyethylamino)-5-nitro-benzoic acid [2-(4-ethylphenyl)-2-keto-ethyl] ester]: the response was half-maximal at 5.45 µM (EC50).
On the same count and under the same terms, the result for `O=C(COC(=O)c1cc([N+](=O)[O-])ccc1NCCO)c1ccccc1` [2-(2-hydroxyethylamino)-5-nitro-benzoic acid phenacyl ester] reads 41.9 µM; that for `O=C(Cn1nc2ccccc2n1)NN=Cc1cc(Cl)cc([N+](=O)[O-])c1O` [2-(2H-1,2,3-benzotriazol-2-yl)-N'-{5-chloro-2-hydroxy-3-nitrobenzylidene}acetohydrazide], 28.4 µM.
Compound `Cc1cc(C)c(C#N)c(N2CCN(Cc3ccccc3)CC2)n1` [2-(4-benzyl-1-piperazinyl)-4,6-dimethylnicotinonitrile] gave a concentration for a half-maximal effect (EC50) of 19.4 µM.
`O=C(CN1C(=O)NC(Cc2ccccc2)C1=O)NC(=O)NC1CCCCC1` (configuration not stated) [2-(4-benzyl-2,5-diketo-imidazolidin-1-yl)-N-(cyclohexylcarbamoyl)acetamide] returned an EC50 under setting [1] of 69.9 µM.
In the case of `O=C(Cn1nc(-c2ccccc2)ccc1=O)NCc1ccc2c(c1)OCO2` [2-(6-keto-3-phenyl-pyridazin-1-yl)-N-piperonyl-acetamide], the response was half-maximal at 1.33 µM (EC50).
Same read-out and setting: the result for `O=C(Cn1cnc2c(nnn2-c2ccccc2)c1=O)NCCc1ccccc1` [2-(7-keto-3-phenyl-triazolo[4,5-d]pyrimidin-6-yl)-N-phenethyl-acetamide] reads 1.17 µM; that for `O=C(COC(=O)c1cc([N+](=O)[O-])ccc1NCc1ccccc1)NC1CCCCC1` [2-(benzylamino)-5-nitro-benzoic acid [2-(cyclohexylamino)-2-keto-ethyl] ester], 4.56 µM.
As to `O=C(O)c1cc([N+](=O)[O-])ccc1NCc1ccccc1` [2-(benzylamino)-5-nitro-benzoic acid], the concentration for a half-maximal effect (EC50) was 4.96 µM.
Still for that read-out and setting: next, `O=[N+]([O-])c1ccc(CSc2nnc(SCc3ccccc3)s2)cc1` [2-(benzylthio)-5-[(4-nitrobenzyl)thio]-1,3,4-thiadiazole]: 11.2 µM; `O=c1c2ccccc2c(-c2nnc(S)o2)nn1Cc1ccccc1` [2-(phenylmethyl)-4-(2-sulfanylidene-3H-1,3,4-oxadiazol-5-yl)-1-phthalazinone]: 3.27 µM.
The compound `COc1ccc(S(=O)(=O)N2CCC(C(=O)N3CCc4ccccc4C3)CC2)cc1C` [2-({1-[(4-methoxy-3-methylphenyl)sulfonyl]-4-piperidinyl}carbonyl)-1,2,3,4-tetrahydroisoquinoline] yielded an EC50 of 14.4 µM.
On the same count and under the same terms, next, `Cn1nccc1C(=O)OCC(=O)Nc1nc(-c2ccccc2)cs1` [2-Methyl-2H-pyrazole-3-carboxylic acid (4-phenyl-thiazol-2-ylcarbamoyl)-methyl ester]: 10.9 µM; `COc1ccc(OC)c(-n2nnnc2SCC(=O)NCCc2ccccc2)c1` [2-[1-(2,5-Dimethoxy-phenyl)-1H-tetrazol-5-ylsulfanyl]-N-phenethyl-acetamide]: 242 µM.
The same measure, in the same setting: the result for `O=C(CSc1nnnn1-c1ccc(Cl)cc1)N1CCc2ccccc2C1` [2-[1-(4-chlorophenyl)tetrazol-5-yl]sulfanyl-1-(3,4-dihydro-1H-isoquinolin-2-yl)ethanone] reads 3.26 µM.
Same read-out and setting: the result for `O=C1Nc2ccc([N+](=O)[O-])cc2OC1CCN1CCN(Cc2ccccc2)CC1` (configuration not stated) [2-[2-(4-benzylpiperazin-1-yl)ethyl]-7-nitro-4H-1,4-benzoxazin-3-one] reads 15.1 µM.
`NC(=O)COc1ccccc1/C=C1/SC(=O)N(CC(=O)N2CCc3ccccc3C2)C1=O` [2-[2-({3-[2-(3,4-dihydro-2(1H)-isoquinolinyl)-2-oxoethyl]-2,4-dioxo-1,3-thiazolidin-5-ylidene}methyl)phenoxy]acetamide] gave a half-maximal effective concentration (EC50) of 16.5 µM.
For the compound `Cc1cccc(N2CCN(C(=O)Cn3ccc4ccccc4c3=O)CC2)c1C` [2-[2-[4-(2,3-dimethylphenyl)-1-piperazinyl]-2-oxoethyl]-1-isoquinolinone], under setting [1], the EC50 is 260 µM.
`CCc1ccc(Nc2nnc(SCC(=O)Nc3sccc3C(N)=O)s2)cc1` [2-[2-[[5-[(4-ethylphenyl)amino]-1,3,4-thiadiazol-2-yl]sulfanyl]ethanoylamino]thiophene-3-carboxamide] yielded an EC50 of 6.01 µM.
In turn, `O=C(Cn1cnc2c(nnn2Cc2ccc(F)cc2)c1=O)NCc1ccco1` [2-[3-(4-fluorobenzyl)-7-keto-triazolo[4,5-d]pyrimidin-6-yl]-N-(2-furfuryl)acetamide] came in with an EC50 under setting [1] of 49 µM.
Consider `O=C(Cn1cnc2c(nnn2Cc2ccc(F)cc2)c1=O)NCc1ccc2c(c1)OCO2` [2-[3-(4-fluorobenzyl)-7-keto-triazolo[4,5-d]pyrimidin-6-yl]-N-piperonyl-acetamide], for which a half-maximal effect (EC50) was put at 2.61 µM.
On the same count and under the same terms, next, `O=[N+]([O-])c1cc(-n2c(O)c3c(c2O)CCCC3)ccc1NC1CCN(Cc2ccccc2)CC1` [2-[3-nitro-4-[[1-(phenylmethyl)-4-piperidinyl]amino]phenyl]-3a,4,5,6,7,7a-hexahydroisoindole-1,3-dione]: 5.5 µM.
Under setting [1], `CCCCC(c1nnnn1Cc1ccco1)N1CCN(c2nc3ccccc3s2)CC1` (configuration not stated) [2-[4-[1-[1-(2-furanylmethyl)-5-tetrazolyl]pentyl]-1-piperazinyl]-1,3-benzothiazole] showed a half-maximal effective concentration (EC50) of 9.22 µM.
Turning to `O=C(CSc1nnc(-c2ccc(F)cc2)o1)N1CCN(C(=O)c2ccco2)CC1` [2-[5-(4-Fluoro-phenyl)-[1,3,4]oxadiazol-2-ylsulfanyl]-1-[4-(furan-2-carbonyl)-piperazin-1-yl]-ethanone], the half-maximal effective concentration (EC50) came to 17.7 µM.
`C=CCNC(=O)NC(=O)CSc1nc2cc([N+](=O)[O-])ccc2n1-c1cccc(C(F)(F)F)c1` [2-[5-nitro-1-[3-(trifluoromethyl)phenyl]benzimidazol-2-yl]sulfanyl-N-(prop-2-enylcarbamoyl)acetamide] showed a 50% effective concentration (EC50) under setting [1] of 19.2 µM.
